Laboratory results as given in EP0437336B1, “Biophosphoryl hydrazines and their use as pesticides” (priority 1990, dated 1991).
Values after ≈ are worked out from the molar mass of the structure shown. Like-named read-outs stand apart in the source and are kept apart here.

What was measured:
Two-Spotted Spider Mite = assay: Biological Method D: Foliar Insecticidal Activity Test, mite test; type: in vivo, Tetranychus urticae; set-up: key to LC50 TSM: I = inactive at concentration listed; details: Method D foliar test, Two-Spotted Spider Mite; for LC50: Tetranychus urticae, read-out: LC50 TSM
[1] = test system: southern corn rootworm, Diabrotica undecimpunctata howardi; details: at-planting soil application
Boll Weevil [2] = assay: Biological Method D: Foliar Insecticidal Activity Test, boll weevil test; type: in vivo, Anthonomous grandis; set-up: key: I = inactive at concentration listed
[3] = test system: southern corn rootworm, Diabrotica undecimpunctata howardi; details: for pest or weed control at 560 g/ha: Diabrotica undecimpunctata, in Zea mays, foliar, 336 h, read-out: foliar systemic nonagressive Method B crw % control at 0.56 kg/ha (0.5 lb/acre); for foliar systemic nonagressive Method B crw % control at 0.56 kg/ha (0.5 lb/acre): percent control relative to infested check, from root damage ratings, 14 days post-spraying
Mexican Bean Beetle = assay: Biological Method D: Foliar Insecticidal Activity Test, Mexican Bean Beetle test; type: in vivo, Epilachna varivestis; details: Epilachna varivestis, Method D foliar test, Mexican Bean Beetle
[4] = test system: southern corn rootworm, Diabrotica undecimpunctata howardi; assay: Biological Method A: Corn Rootworm Screening Test (treated non-aggressive soil); details: soil concentration giving 90% mortality, 10 days at 27°C
Southern Armyworm = assay: Biological Method D: Foliar Insecticidal Activity Test, Southern Armyworm test; type: in vivo, Spodoptera eridania; set-up: key: I = inactive at concentration listed
Green Peach Aphid = assay: Biological Method D: Foliar Insecticidal Activity Test, aphid test; type: in vivo, Myzus persicae; set-up: key: I = inactive at concentration listed
Boll Weevil [5] = assay: Biological Method D: Foliar Insecticidal Activity Test, boll weevil test; type: in vivo, Anthonomous grandis; details: Method D foliar test; Boll Weevil; 96 hrs
[6] = 48 hrs, read-out: LC50 BB 48 hrs.
[7] = 96 hrs, read-out: LC50 BB 96 hrs

SMILES	LC50 TSM (Two-Spotted Spider Mite)	secondary aggressive Method C crw LC50 ([1]; rated 17 days post-infestation)	secondary aggressive Method C crw LC50 ([1]; value in brackets)	LC50 BW 48 hrs (Boll Weevil [2])	LC50 BW 96 hrs (Boll Weevil [2])	pest or weed control at 560 g/ha [3]	LC50 (Mexican Bean Beetle; [6])	LC50 (Mexican Bean Beetle; [7])	primary nonagressive Method A crw LC90 [4]	LC50 AW 48 hrs (Southern Armyworm)	LC50 AW 96 hrs (Southern Armyworm)	LC50 GPA (Green Peach Aphid)	LC50 (Two-Spotted Spider Mite)	foliar systemic nonagressive Method B crw % control at 0.56 kg/ha (0.5 lb/acre) [3]	LC50 BW 96 hrs (Boll Weevil [5])
CCCCOP(=S)(NNP(=S)(OCCC)OCCC)OCC (stereo not shown) [Compound 17]	I	1.02 kg/ha	0.91 lb/acre	I	I	38%	150 µg/mL (≈ 382 µM)	62 µg/mL (≈ 158 µM)	1.1 ppm	I	I	I	–	–	–
CCOP(=S)(NNP(=S)(OC(C)C)OC(C)C)OCC [Compound 9, reference compound]	–	1.1 kg/ha	0.98 lb/acre	I	I	–	300 µg/mL (≈ 823 µM)	150 µg/mL (≈ 412 µM)	0.41 ppm	I	I	I	76 µg/mL (≈ 209 µM)	64%	–
CCOP(=S)(NNP(=S)(OCC)OC(C)C(F)(F)F)OCC (stereo not shown) [Compound 15]	I	–	–	I	I	54%	150 µg/mL (≈ 371 µM)	62 µg/mL (≈ 153 µM)	<0.1 ppm	I	I	I	–	–	–
CCCNP(=S)(NNP(=S)(OCC)OCC)OCC (stereo not shown) [Compound 24]	I	–	–	I	–	–	27 µg/mL (≈ 77.3 µM)	31 µg/mL (≈ 88.7 µM)	1.1 ppm	I	I	I	–	38%	380 ppm
CCOP(=S)(NNP(=S)(OCC)OCC(C)C)OCC (stereo not shown) [Compound 11, N-(O,O-diethylthiophosphoryl) N′-(O-ethyl O-isobutylthiophosphoryl) hydrazine]	I	0.36 kg/ha	0.32 lb/acre	I	–	–	150 µg/mL (≈ 412 µM)	60 µg/mL (≈ 165 µM)	<0.1 ppm	I	I	I	–	53%	740 ppm
CCOP(=S)(NNP(=S)(OCC)OC(C)(C(F)(F)F)C(F)(F)F)OCC (stereo not shown) [Compound 39]	–	–	–	I	I	46%	31 µg/mL (≈ 65.6 µM)	150 µg/mL (≈ 318 µM)	0.71 ppm	I	I	I	150 µg/mL (≈ 318 µM)	–	–
CCCOP(=S)(NNP(=S)(OCC)OCC)OCCC [Compound 13, reference compound]	I	–	–	I	I	–	150 µg/mL (≈ 412 µM)	52 µg/mL (≈ 143 µM)	<0.1 ppm	I	I	I	–	46%	–
